Laboratory results from the supplement of paper PMC10627819.

Tests used:
Assay in all cases: fitness (endpoint OD595 vs no drug) (fraction); higher = more growth
[1] = test system: S. pneumoniae D39V
Outline: (§1)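 At 37 °C, bacteria in TSB, LB Lennox or CY were grown in 384-well plates from a starting OD595 of 0.01. OD595 was measured every 30 min for 14 h, with the first reading used as background. Fitness is the optical density at the switch to stationary phase as a fraction of the robust mean of no-drug control wells, capped at 1.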

[2] = test system: B. subtilis 168
Outline: as §1

[3] = test system: S. aureus Newman
Outline: as §1
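Note: OD595 on entry to stationary phase over no-drug wells; at most 1.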

CN(C)[C@@H]1C(O)=C(C(N)=O)C(=O)[C@@]2(O)C(O)=C3C(=O)c4c(O)ccc(Cl)c4[C@@](C)(O)[C@H]3C[C@@H]12 [Chlortetracycline] + CN[C@@H]1[C@H](O[C@H]2[C@H](O[C@H]3[C@H](O)[C@@H](O)[C@H](N=C(N)N)[C@@H](O)[C@@H]3N=C(N)N)O[C@@H](C)[C@]2(O)C=O)O[C@@H](CO)[C@H](O)[C@H]1O [Streptomycin]
fitness, [1], one replicate
Conditions	first compound 0.012 µg/mL	first compound 0.024 µg/mL	first compound 0.048 µg/mL
partner 2 µg/mL	0.886	0.861	0.794
partner 16 µg/mL	0.757	0.72	0.619

fitness
Conditions	partner 2 µg/mL	partner 4 µg/mL	partner 8 µg/mL
[1], first compound 0.012 µg/mL	–	0.898	0.829
[1], first compound 0.024 µg/mL	–	0.827	0.794
[1], first compound 0.048 µg/mL	–	0.762	0.779
[1], first compound 0.375 µg/mL	0.0439	0.0457	0.0281
[1], first compound 0.75 µg/mL	0.0196	0.0558	0.0751
[1], first compound 1.5 µg/mL	0.0385	0.0525	0.0578
[2], first compound 0.0475 µg/mL	0.863	0.729	–
[2], first compound 0.095 µg/mL	0.735	0.601	–
[2], first compound 0.19 µg/mL	0.473	0.367	0.0988

CN(C)[C@@H]1C(O)=C(C(N)=O)C(=O)[C@@]2(O)C(O)=C3C(=O)c4c(O)ccc(Cl)c4[C@@](C)(O)[C@H]3C[C@@H]12 [Chlortetracycline] + C[C@H]1COc2c(N3CCN(C)CC3)c(F)cc3c(=O)c(C(=O)O)cn1c23 [Levofloxacin]
Conditions	fitness
[1], first compound 0.012 µg/mL, partner 0.1725 µg/mL	0.949
[1], first compound 0.012 µg/mL, partner 0.345 µg/mL	0.803
[1], first compound 0.012 µg/mL, partner 0.69 µg/mL	0.603
[1], first compound 0.024 µg/mL, partner 0.1725 µg/mL	0.909
[1], first compound 0.024 µg/mL, partner 0.345 µg/mL	0.88
[1], first compound 0.024 µg/mL, partner 0.69 µg/mL	0.546
[1], first compound 0.048 µg/mL, partner 0.1725 µg/mL	0.869
[1], first compound 0.048 µg/mL, partner 0.345 µg/mL	0.828
[1], first compound 0.375 µg/mL, partner 0.2 µg/mL	0.0411
[1], first compound 0.375 µg/mL, partner 0.4 µg/mL	0.0338
[1], first compound 0.375 µg/mL, partner 0.8 µg/mL	0.0351
[1], first compound 0.75 µg/mL, partner 0.2 µg/mL	0.0448
[1], first compound 0.75 µg/mL, partner 0.4 µg/mL	0.0671
[1], first compound 0.75 µg/mL, partner 0.8 µg/mL	0.0531
[1], first compound 1.5 µg/mL, partner 0.2 µg/mL	0.0471
[1], first compound 1.5 µg/mL, partner 0.4 µg/mL	0.0332
[1], first compound 1.5 µg/mL, partner 0.8 µg/mL	0.0439
[2], first compound 0.0475 µg/mL, partner 0.002 µg/mL	0.898
[2], first compound 0.0475 µg/mL, partner 0.0039 µg/mL	0.855
[2], first compound 0.0475 µg/mL, partner 0.0312 µg/mL	0.0308
[2], first compound 0.0475 µg/mL, partner 0.0625 µg/mL	0.0341
[2], first compound 0.0475 µg/mL, partner 0.125 µg/mL	0.0327
[2], first compound 0.095 µg/mL, partner 0.002 µg/mL	0.854
[2], first compound 0.095 µg/mL, partner 0.0039 µg/mL	0.854
[2], first compound 0.095 µg/mL, partner 0.0312 µg/mL	0.0231
[2], first compound 0.095 µg/mL, partner 0.0625 µg/mL	0.0369
[2], first compound 0.095 µg/mL, partner 0.125 µg/mL	0.028
[2], first compound 0.19 µg/mL, partner 0.002 µg/mL	0.593
[2], first compound 0.19 µg/mL, partner 0.0039 µg/mL	0.61
[2], first compound 0.19 µg/mL, partner 0.0312 µg/mL	0.0218
[2], first compound 0.19 µg/mL, partner 0.0625 µg/mL	0.054
[2], first compound 0.19 µg/mL, partner 0.125 µg/mL	0.032

fitness, [2], one replicate
Conditions	first compound 0.0475 µg/mL	first compound 0.095 µg/mL	first compound 0.19 µg/mL
partner 0.001 µg/mL	0.924	0.912	0.674
partner 0.0078 µg/mL	0.907	0.824	0.623

CN(C)[C@@H]1C(O)=C(C(N)=O)C(=O)[C@@]2(O)C(O)=C3C(=O)c4c(O)ccc(Cl)c4[C@@](C)(O)[C@H]3C[C@@H]12 [Chlortetracycline] + C[C@H]1c2cccc(O)c2C(=O)C2=C(O)[C@]3(O)C(=O)C(C(N)=O)=C(O)[C@@H](N(C)C)[C@@H]3[C@@H](O)[C@@H]21 [Doxycycline]
fitness, [1], one replicate
Conditions	partner 0.003875 µg/mL	partner 0.00775 µg/mL	partner 0.031 µg/mL	partner 0.062 µg/mL
first compound 0.012 µg/mL	0.909	0.91	0.8	0.707
first compound 0.024 µg/mL	0.834	0.808	0.821	0.774
first compound 0.048 µg/mL	0.774	0.809	0.745	0.614

Conditions	fitness
[1], first compound 0.012 µg/mL, partner 0.0155 µg/mL	0.921
[1], first compound 0.024 µg/mL, partner 0.0155 µg/mL	0.88
[1], first compound 0.048 µg/mL, partner 0.0155 µg/mL	0.803
[1], first compound 0.375 µg/mL, partner 0.0155 µg/mL	0.0318
[1], first compound 0.375 µg/mL, partner 0.031 µg/mL	0.0187
[1], first compound 0.375 µg/mL, partner 0.062 µg/mL	0.0418
[1], first compound 0.75 µg/mL, partner 0.0155 µg/mL	0.0248
[1], first compound 0.75 µg/mL, partner 0.031 µg/mL	0.0352
[1], first compound 0.75 µg/mL, partner 0.062 µg/mL	0.0311
[1], first compound 1.5 µg/mL, partner 0.0155 µg/mL	0.0258
[1], first compound 1.5 µg/mL, partner 0.031 µg/mL	0.067
[1], first compound 1.5 µg/mL, partner 0.062 µg/mL	0.047
[2], first compound 0.0475 µg/mL, partner 0.02 µg/mL	0.858
[2], first compound 0.0475 µg/mL, partner 0.04 µg/mL	0.658
[2], first compound 0.095 µg/mL, partner 0.02 µg/mL	0.735
[2], first compound 0.095 µg/mL, partner 0.04 µg/mL	0.553
[2], first compound 0.19 µg/mL, partner 0.08 µg/mL	0.0672

O=C(O)c1cn(C2CC2)c2cc(N3CCNCC3)c(F)cc2c1=O [Ciprofloxacin] + CC1(C)S[C@@H]2[C@H](NC(=O)Cc3ccccc3)C(=O)N2[C@H]1C(=O)O [Penicillin G]
fitness, [3]
Conditions	first compound 0.0375 µg/mL	first compound 0.075 µg/mL	first compound 0.15 µg/mL
partner 0.0195 µg/mL	0.66	0.582	0.0269
partner 0.039 µg/mL	0.679	0.593	0.0263
partner 0.078 µg/mL	0.688	0.593	0.024

O=C(O)c1cn(C2CC2)c2cc(N3CCNCC3)c(F)cc2c1=O [Ciprofloxacin] + CN(C)[C@@H]1C(O)=C(C(N)=O)C(=O)[C@@]2(O)C(O)=C3C(=O)c4c(O)ccc(Cl)c4[C@@](C)(O)[C@H]3C[C@@H]12 [Chlortetracycline]
Conditions	fitness
[1], first compound 0.125 µg/mL, partner 0.012 µg/mL	0.867
[1], first compound 0.125 µg/mL, partner 0.024 µg/mL	0.748
[1], first compound 0.125 µg/mL, partner 0.048 µg/mL	0.35
[1], first compound 0.125 µg/mL, partner 0.375 µg/mL	0.0283
[1], first compound 0.125 µg/mL, partner 0.75 µg/mL	0.038
[1], first compound 0.125 µg/mL, partner 1.5 µg/mL	0.0287
[1], first compound 0.25 µg/mL, partner 0.375 µg/mL	0.0322
[1], first compound 0.25 µg/mL, partner 0.75 µg/mL	0.0502
[1], first compound 0.25 µg/mL, partner 1.5 µg/mL	0.0591
[1], first compound 0.5 µg/mL, partner 0.048 µg/mL	0.323
[1], first compound 0.5 µg/mL, partner 0.75 µg/mL	0.0332
[1], first compound 0.5 µg/mL, partner 1.5 µg/mL	0.0454
[2], first compound 0.0098 µg/mL, partner 0.0475 µg/mL	0.886
[2], first compound 0.0098 µg/mL, partner 0.095 µg/mL	0.82
[2], first compound 0.0098 µg/mL, partner 0.19 µg/mL	0.658
[2], first compound 0.0195 µg/mL, partner 0.0475 µg/mL	0.776
[2], first compound 0.0195 µg/mL, partner 0.095 µg/mL	0.692
[2], first compound 0.0195 µg/mL, partner 0.19 µg/mL	0.582
[2], first compound 0.039 µg/mL, partner 0.19 µg/mL	0.307

[1], first compound 0.25 µg/mL, one replicate
Conditions	fitness
partner 0.012 µg/mL	0.74
partner 0.024 µg/mL	0.447
partner 0.048 µg/mL	0.237

C[C@H]1c2cccc(O)c2C(=O)C2=C(O)[C@]3(O)C(=O)C(C(N)=O)=C(O)[C@@H](N(C)C)[C@@H]3[C@@H](O)[C@@H]21 [Doxycycline] + CC1=C(C(=O)O)N2C(=O)[C@@H](NC(=O)[C@H](N)c3ccccc3)[C@H]2SC1 [Cephalexin]
fitness, one replicate
Conditions	partner 0.125 µg/mL	partner 0.25 µg/mL	partner 0.5 µg/mL	partner 1 µg/mL	partner 2 µg/mL	partner 4 µg/mL
[1], first compound 0.003875 µg/mL	–	–	–	0.601	0.0976	0.0088
[1], first compound 0.00775 µg/mL	–	–	–	0.722	0.186	0.0118
[1], first compound 0.0155 µg/mL	0.902	0.867	0.879	–	–	–
[1], first compound 0.031 µg/mL	0.916	0.885	0.887	0.756	0.634	0.0444
[1], first compound 0.062 µg/mL	0.807	0.808	0.809	0.667	0.51	0.0551
[2], first compound 0.02 µg/mL	–	–	–	≥ 1	–	–
[2], first compound 0.04 µg/mL	–	–	–	0.84	–	–
[2], first compound 0.08 µg/mL	–	–	–	0.793	–	–

Conditions	fitness
[1], first compound 0.0155 µg/mL, partner 1 µg/mL	0.873
[1], first compound 0.0155 µg/mL, partner 2 µg/mL	0.474
[1], first compound 0.0155 µg/mL, partner 4 µg/mL	0.0211
[2], first compound 0.02 µg/mL, partner 0.125 µg/mL	0.834
[2], first compound 0.02 µg/mL, partner 0.25 µg/mL	0.871
[2], first compound 0.02 µg/mL, partner 0.5 µg/mL	0.907
[2], first compound 0.04 µg/mL, partner 0.125 µg/mL	0.702
[2], first compound 0.04 µg/mL, partner 0.25 µg/mL	0.771
[2], first compound 0.04 µg/mL, partner 0.5 µg/mL	0.711
[2], first compound 0.08 µg/mL, partner 0.125 µg/mL	0.413
[2], first compound 0.08 µg/mL, partner 0.25 µg/mL	0.375

C[C@H]1c2cccc(O)c2C(=O)C2=C(O)[C@]3(O)C(=O)C(C(N)=O)=C(O)[C@@H](N(C)C)[C@@H]3[C@@H](O)[C@@H]21 [Doxycycline] + COc1cccc2c1C(=O)c1c(O)c3c(c(O)c1C2=O)C[C@@](O)(C(=O)CO)C[C@@H]3O[C@H]1C[C@H](N)[C@H](O)[C@H](C)O1 [Doxorubicin]
fitness, [1], one replicate
Conditions	partner 0.25 µg/mL	partner 0.5 µg/mL	partner 1 µg/mL
first compound 0.003875 µg/mL	0.916	0.914	0.887
first compound 0.00775 µg/mL	0.885	0.891	0.848

fitness
Conditions	partner 0.25 µg/mL	partner 0.5 µg/mL	partner 0.625 µg/mL	partner 1 µg/mL	partner 1.25 µg/mL	partner 2.5 µg/mL
[1], first compound 0.0155 µg/mL	0.833	0.826	–	0.814	–	–
[2], first compound 0.02 µg/mL	–	–	0.915	–	0.854	0.695
[2], first compound 0.04 µg/mL	–	–	0.722	–	0.712	0.58
